Laboratory results published in patent US6544979B1, “Fused imidazole derivatives for improving oral bioavailability of pharmaceutical agents” (Janssen Pharmaceuticals, N.V., priority 1997, dated 2003).

What was measured:
[1] = tested on: P388/ADR (adriamycine resistance cell line) murine leukemia; experiment: MDR in vivo test: reversal of adriamycine resistance in P388/ADR murine leukemia, survival; set-up: species or system mice; conditions: for MST %: control = 100%
Description: Male B6D2F1 mice (18-21 g) were injected intraperitoneally with 1×10^5 P388/ADR cells at day 0. Daily intraperitoneal treatment with adriamycine, a test compound of formula (I) or a combination of both was installed from day 1 until day 10. Control animals received the vehicle (15% 4-OH-propyl-β-cyclodextrine in saline). Each group consisted of 8 animals. Adriamycine was dosed at a concentration of 1.25 mg/kg body weight, half the maximal tolerable dose of adriamycine in this treatment schedule. The test compound was dosed at 20, 10, 5, 2.5, 1.25 and 0.63 mg/kg either as single treatment or combined with adriamycine.
Survival of the animals was recorded each day and expressed as a percentage of the median survival in the treated groups compared to the median survival in the control group, the latter to be said to be 100%.
Table C-1 lists the effect of compound 6 and adriamycine on the survival of mice injected with P388/ADR leukemia.
doses of compound 6 and adriamycine are expressed as mg/kg body weight.
column “% Change vs. ADR” give the difference in MST% of the different groups compared to the MST% in the adriamycine-monotherapy group.

in vivo = conditions: mouse, po, 10 mg/kg
Description: The increase in drug bioavailability is defined as an increase in the Area Under the Curve (AUC). AUC is the integrated measure of systemic drug concentrations over time in units of mass-time/volume. The AUC from time zero (the time of dosing) to time infinity (when no drug remains in the body) following the administration of a drug dose is a measure of the exposure of the test subject, i.e. an animal or a human patient, to the drug.
Mice were treated orally (80 mg/kg po) with compound (6) about 10 to 20 minutes prior to oral administration of taxol (10 mg/kg po). The Area Under the Curve (AUC) was measured and compared with the AUC of mice treated only with taxol.

[2] = compound 6 0.63 mg/kg combined with adriamycine 1.25 mg/kg
[3] = compound 6 0.63 mg/kg single treatment
[4] = compound 6 1.25 mg/kg combined with adriamycine 1.25 mg/kg
[5] = compound 6 1.25 mg/kg single treatment
[6] = compound 6 2.5 mg/kg combined with adriamycine 1.25 mg/kg
[7] = compound 6 2.5 mg/kg single treatment
[8] = compound 6 5 mg/kg combined with adriamycine 1.25 mg/kg
[9] = compound 6 5 mg/kg single treatment
[10] = compound 6 10 mg/kg combined with adriamycine 1.25 mg/kg
[11] = compound 6 10 mg/kg single treatment
[12] = compound 6 20 mg/kg combined with adriamycine 1.25 mg/kg
[13] = compound 6 20 mg/kg single treatment
[14] = adriamycine 1.25 mg/kg alone, ip daily day 1-10

Structure (SMILES): OC1Cn2ccnc2C(=C2CCN(CCc3ccc(OCc4ccc5ccccc5n4)cc3)CC2)c2ccsc21 (racemic) [Compound 28, (±)-6,10-dihydro-10-[1-[2-[4-(2-quinolinylmethoxy)-phenyl]ethyl]-4-piperidinylidene]-5H-imidazo[1,2-a]-thieno[3,2-d]azepin-6-ol]
- melting point: 242.1 °C

Structure (SMILES): COC(=O)c1cnc2n1CCc1ccccc1C2=C1CCN(CCc2ccc(OCc3ccc4ccccc4n3)cc2)CC1 [Compound 6, methyl 6,11-dihydro-11-[1-[2-[4-(2-quinolinylmethoxy)phenyl]ethyl]-4-piperidinylidene]-5H-imidazo[2,1-b][3]-benzazepine-3-carboxylate]
- % Change vs. ADR [1, 2]: 14%
- Survival Days med(min-max) ([1]; compound 6 0.63 mg/kg combined with adriamycine 1.25 mg/kg, ip daily day 1-10): 14.5(14->30) Days
- MST % [1, 2]: 132%
- % Change vs. ADR [1, 3]: −18%
- Survival Days med(min-max) ([1]; compound 6 0.63 mg/kg single treatment, ip daily day 1-10): 11(10-12) Days
- MST % [1, 3]: 100%
- % Change vs. ADR [1, 4]: 18%
- Survival Days med(min-max) ([1]; compound 6 1.25 mg/kg combined with adriamycine 1.25 mg/kg, ip daily day 1-10): 15(14-17) Days
- MST % [1, 4]: 136%
- % Change vs. ADR [1, 5]: −13%
- Survival Days med(min-max) ([1]; compound 6 1.25 mg/kg single treatment, ip daily day 1-10): 11.5(10-16) Days
- MST % [1, 5]: 105%
- % Change vs. ADR [1, 6]: 14%
- Survival Days med(min-max) ([1]; compound 6 2.5 mg/kg combined with adriamycine 1.25 mg/kg, ip daily day 1-10): 14.5(10-20) Days
- MST % [1, 6]: 132%
- % Change vs. ADR [1, 7]: −23%
- Survival Days med(min-max) ([1]; compound 6 2.5 mg/kg single treatment, ip daily day 1-10): 10.5(10-12) Days
- MST % [1, 7]: 95%
- % Change vs. ADR [1, 8]: 14%
- Survival Days med(min-max) ([1]; compound 6 5 mg/kg combined with adriamycine 1.25 mg/kg, ip daily day 1-10): 14.5(11-16) Days
- MST % [1, 8]: 132%
- % Change vs. ADR [1, 9]: −18%
- Survival Days med(min-max) ([1]; compound 6 5 mg/kg single treatment, ip daily day 1-10): 11(10-13) Days
- MST % [1, 9]: 100%
- % Change vs. ADR [1, 10]: 18%
- Survival Days med(min-max) ([1]; compound 6 10 mg/kg combined with adriamycine 1.25 mg/kg, ip daily day 1-10): 15(14-28) Days
- MST % [1, 10]: 136%
- % Change vs. ADR [1, 11]: −23%
- Survival Days med(min-max) ([1]; compound 6 10 mg/kg single treatment, ip daily day 1-10): 10.5(10-13) Days
- MST % [1, 11]: 95%
- % Change vs. ADR [1, 12]: 23%
- Survival Days med(min-max) ([1]; compound 6 20 mg/kg combined with adriamycine 1.25 mg/kg, ip daily day 1-10): 15.5(14-17) Days
- MST % [1, 12]: 141%
- % Change vs. ADR [1, 13]: −18%
- Survival Days med(min-max) ([1]; compound 6 20 mg/kg single treatment, ip daily day 1-10): 11(10-14) Days
- MST % [1, 13]: 100%

Structure (SMILES): O=Cc1cnc2n1CCc1ccccc1C2=C1CCN(CCc2ccc(OCc3ccc4ccccc4n3)cc2)CC1 [Compound 4, 6,11-dihydro-11-[1-[2-[4-(2-quinolinylmethoxy)phenyl]ethyl]-4-piperidinylidene]-5H-imidazo[2,1-b][3]benzazepine-3-carboxaldehyde]
- melting point: 193.5 °C

Structure (SMILES): CC(=O)O[C@H]1C(=O)[C@@]2(C)[C@H]([C@H](OC(=O)c3ccccc3)[C@]3(O)C[C@H](OC(=O)[C@H](O)[C@@H](NC(=O)c4ccccc4)c4ccccc4)C(C)=C1C3(C)C)[C@]1(OC(C)=O)CO[C@@H]1C[C@@H]2O [taxol, paclitaxel]
- AUC (in vivo): 820 ± 110 ng·h/mL

Structure (SMILES): COc1cccc2c1C(=O)c1c(O)c3c(c(O)c1C2=O)C[C@@](O)(C(=O)CO)C[C@@H]3O[C@H]1C[C@H](N)[C@H](O)[C@H](C)O1 [Adriamycine, adriamycine, reference compound]
- % Change vs. ADR [1, 14]: 0%
- Survival Days med(min-max) [1, 14]: 13(12-15) Days
- MST % [1, 14]: 118%

Structure (SMILES): COc1cc(CN2CCC(=C3c4ccccc4CCn4ccnc43)CC2)cc(OC)c1OCc1ccc2ccccc2n1 [Compound 32, 11-[1-[[3,5-dimethoxy-4-(2-quinolinylmethoxy)-phenyl]methyl]-4-piperidinylidene]-6,11-dihydro-5H-imidazo[2,1-b][3]benzazepine]
- melting point: 214.8 °C

Structure (SMILES): O=C(O)c1cnc2n1CCc1ccccc1C2=C1CCN(CCc2ccc(OCc3ccc4ccccc4n3)cc2)CC1 [Compound 7, 6,11-dihydro-11-[1-[2-[4-(2-quinolinylmethoxy)phenyl]ethyl]-4-piperidinylidene]-5H-imidazo[2,1-b][3]benzazepine-3-carboxylic acid]
- melting point: 174.2 °C
